Series [1] can be described thus: Metabolic stability in human liver microsomes assessed as compound remaining at 0.5 uM incubated for 10 mins in presence of NADPH by UV absorbance based assay. Format: ADME, Microsome. The note with it: read-out: Stability.
A short description of series [2]: Metabolic stability in mouse liver microsomes assessed as compound remaining at 0.5 uM incubated for 10 mins in presence of NADPH by UV absorbance based assay. Type of series: ADME, Microsome. Particulars: read-out: Stability.
The target of series [3] is T1, Toll-like receptor 8 (Homo sapiens, UniProt Q9NR97).
T1 sequence (Q9NR97 whole entry): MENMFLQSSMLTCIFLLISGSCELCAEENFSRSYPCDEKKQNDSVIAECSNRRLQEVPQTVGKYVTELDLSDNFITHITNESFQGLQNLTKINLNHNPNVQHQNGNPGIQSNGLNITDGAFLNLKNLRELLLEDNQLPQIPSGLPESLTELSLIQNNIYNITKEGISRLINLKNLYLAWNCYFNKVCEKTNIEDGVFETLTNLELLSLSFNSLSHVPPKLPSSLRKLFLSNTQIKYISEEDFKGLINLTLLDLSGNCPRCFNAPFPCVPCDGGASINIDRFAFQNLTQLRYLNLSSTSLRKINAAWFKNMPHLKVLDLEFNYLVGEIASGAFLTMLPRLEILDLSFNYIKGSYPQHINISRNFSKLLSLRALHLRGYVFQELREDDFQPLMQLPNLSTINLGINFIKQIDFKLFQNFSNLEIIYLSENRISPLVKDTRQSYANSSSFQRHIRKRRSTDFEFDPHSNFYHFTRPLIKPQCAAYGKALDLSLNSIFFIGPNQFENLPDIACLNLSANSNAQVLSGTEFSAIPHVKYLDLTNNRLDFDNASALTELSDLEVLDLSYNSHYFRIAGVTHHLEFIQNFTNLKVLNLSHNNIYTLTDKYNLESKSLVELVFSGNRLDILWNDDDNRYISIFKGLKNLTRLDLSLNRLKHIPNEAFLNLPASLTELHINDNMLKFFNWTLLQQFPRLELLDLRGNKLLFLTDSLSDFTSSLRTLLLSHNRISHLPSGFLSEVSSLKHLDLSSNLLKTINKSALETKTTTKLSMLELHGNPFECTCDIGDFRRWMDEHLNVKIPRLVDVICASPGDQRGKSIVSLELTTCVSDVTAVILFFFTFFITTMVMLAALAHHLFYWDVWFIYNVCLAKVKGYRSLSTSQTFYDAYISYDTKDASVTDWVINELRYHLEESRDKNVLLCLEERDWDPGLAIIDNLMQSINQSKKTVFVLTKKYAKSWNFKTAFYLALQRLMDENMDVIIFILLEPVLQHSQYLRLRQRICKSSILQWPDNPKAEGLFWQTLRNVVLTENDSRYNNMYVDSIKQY
The series can be described thus: Agonist activity at human TLR8.

Series [4] can be described thus: Drug concentration in nontumor bearing Balb/C mouse at 0.5 mg/kg measured after 5 mins. Format: ADME, organism-based. The note with it: in vivo, read-out: Drug uptake.
Series [5] can be described thus: AUClast in nontumor bearing Balb/C mouse at 0.5 mg/kg. Format: ADME, organism-based. Details: dose 0.5 mg/kg. The note with it: in vivo.
The nature of series [6]: Half life in nontumor bearing Balb/C mouse at 0.5 mg/kg. Type of series: ADME, organism-based. Particulars: in vivo.
The nature of series [7]: Clearance in nontumor bearing Balb/C mouse at 0.5 mg/kg. The note with it: in vivo. Type of series: ADME, organism-based.

For the compound `CCC[C@@H](CCO)Nc1nc(N)nc2cnn(Cc3ccc(CNC4CCOCC4)cc3OC)c12`, the remaining at 10 min, 0.5 µM was determined as 75% in series [1] and 81% in series [2]. The EC50 in series [3] is over 5 µM. The concentration at 5 min in series [4] is 0.066 µM. In series [5], this compound yielded an AUC(0-t) of 111 nM·h. In series [6], this compound showed a half-life of 5.6 h. The clearance in series [7] turned out to be 8.94 L/h/kg.

The term EC50 denotes the concentration needed to bring the measured effect to its halfway point. Read a high EC50 as lower potency in that assay. As a reminder, the AUC(0-t) is exposure summed from dosing to a finite time, without extrapolation to infinity. Low readings indicate low exposure, high ones high exposure. As usually defined, the half-life is how long it takes for the measured level to halve. The term clearance denotes the volume of plasma or blood freed of the substance per unit of time. High values mean efficient removal, low ones inefficient removal.

(Values after ChEMBL document CHEMBL5357082, “Identification and Optimization of Small Molecule Pyrazolopyrimidine TLR7 Agonists for Applications in Immuno-oncology” (ACS Med Chem Lett, 2024).)
